{
  "source": "patent US12576039B2",
  "about": "“Lipid-polymer compositions and methods of use” (Max Biology Co. Ltd., priority 2020, dated 2026)",
  "key": {"[1]": {"assay": "Saturated solubility of CBD (HPLC)", "assay_type": "physicochemical", "settings": "formulations containing PLURONIC F127 from 7% to 11%, excess CBD stirred overnight at room temperature, filtered 0.45 μm", "description": "To determine the saturated solubility of CBD in the presence of PLURONIC® F127, PLURONIC® formulations were made as above. To each formulation excess CBD was added and left stirring overnight on a magnetic stirrer at room temperature (FIG. 17). To see how addition of lipids affects saturated solubility, lipids were added to 5% PLURONIC® F127 containing excess CBD using the ethanol injection method. For this, a 19G needle was immersed into the formulation being stirred, and 8.11% (volume of sample end volume) of the lipid stock formulation was injected at the rate of 750 μl/7 sec. Each formulation at this point was then left stirring overnight as above. On the following day, the formulations were filtered using 0.45 μm syringe filters and the amount of CBD dissolved was quantified using high pressure liquid chromatography.\nCBD content was determined by diluting the samples in acetonitrile (ACN) (as needed) and then analysing them using HPLC. Calibration curve and sample quantification was carried out using an Agilent Infinity 1260 system. An Eclipse Plus C18, 4.6×150 mm, 3.5 μm column was purchased from […]. The mobile phase used was ACN:Water (82:18 v/v). HPLC analysis was carried at room temperature at a flow rate of 1 ml/min and an injection volume of 20 μl. […] Particle size and polydispersity was determined using a Brookhaven dynamic light scattering system."}, "[2]": {"settings": "very low solubility in water, high lipophilicity; cited from earlier work"}},
  "data": [
    {"smiles": "C=C(C)[C@@H]1CCC(C)=C[C@H]1c1c(O)cc(CCCCC)cc1O", "note": "[CBD, cannabidiol]", "values": [
      {"measurement": "peak CBD concentration (saturated solubility)", "setting": "[1]", "result": "approximately 2 % w/v"},
      {"measurement": "Biopharmaceutical Classification System (BCS) classification", "setting": "[2]", "result": "class 2"}
    ]}
  ]
}
